Patent US20260256792A1, “TREATMENT OF CHRONIC SPONTANEOUS URTICARIA BY ADMINISTERING (R)-2-[3-[4-AMINO-3-(2-FLUORO-4-PHENOXY-PHENYL)PYRAZOLO[3,4-D]PYRIMIDIN-1-YL]PIPERIDINE-1-CARBONYL]-4-METHYL-4-[4-(OXETAN-3-YL)PIPERAZIN-1-YL]PENT-2-ENENITRILE” (priority 2023, published 2026)

Tested on: moderate-to-severe chronic spontaneous urticaria (CSU)
Experiment: Phase 2 CSU study: itch severity score over 7 days (ISS7)
Type: in vivo, human
Conditions: for Non-responder n (%) (ISS7 reduction of 5 points or more) / OR for rilzabrutinib vs. placebo (ISS7 reduction of 5 points or more) / Responder n (%) (ISS7 reduction of 5 points or more) / Imputed non-responder n (%) (ISS7 reduction of 5 points or more) / RRD (%) for rilzabrutinib vs. placebo (ISS7 reduction of 5 points or more): Omalizumab-Naïve Population; for ISS7 Post-baseline Mean (SD): Omalizumab-Naïve, outlier removed
From the text: The study comprises a 12 week, randomized, double-blind, placebo-controlled, multi-center, dose-ranging efficacy and safety phase, followed by a 40 week open label extension (OLE) phase (see FIG. 1). The study consists of three phases and an optional OLE phase. […] Clinically, CSU is characterized by the spontaneous and recurrent appearance of pruritic hives. The proposed primary endpoints were the UAS7 at Week 12 in EU and EU reference countries and the ISS7 in the US. Regardless of where a participant was from, all assessments were the same. The UAS7 score is a composite score containing both the HSS7 and the ISS7. This allowed a global assessment of the two key components of urticaria: hives and itch. […] The UAS is a validated PRO measure. […] The daily UAS scores range from 0 to 6 point/day. […] Patients were to complete the UAS using the e-diary. […] The following secondary endpoints were to be analyzed using the same approach as for the primary endpoint: • Change from baseline in UAS7 at Week 4 • Change from baseline in UAS7 at Week 12 (for US and US reference countries) • Change from baseline in ISS7 at Week 12 (except US and US reference countries) • Change from baseline in HSS7 at Week 12

`CC(C)(C=C(C#N)C(=O)N1CCC[C@@H](n2nc(-c3ccc(Oc4ccccc4)cc3F)c3c(N)ncnc32)C1)N1CCN(C2COC2)CC1` [rilzabrutinib, (R)-2-[3-[4-amino-3-(2-fluoro-4-phenoxy-phenyl)pyrazolo[3,4-d]pyrimidin-1-yl]piperidine-1-carbonyl]-4-methyl-4-[4-(oxetan-3-yl)piperazin-1-yl]pent-2-enenitrile] was tested, and the “Non-responder n (%) (ISS7 reduction of 5 points or more)” value (400 mg QPM, Week 10) was 14 (37.8) n (%), the “OR for rilzabrutinib vs. placebo (ISS7 reduction of 5 points or more)” value (400 mg QPM, Week 10) was 1.614 and the “Responder n (%) (ISS7 reduction of 5 points or more)” value (400 mg QPM, Week 10) was 23 (62.2) n (%). For the same compound, the “Imputed non-responder n (%) (ISS7 reduction of 5 points or more)” value (400 mg QPM, Week 11) was 7 (18.9) n (%), the “Non-responder n (%) (ISS7 reduction of 5 points or more)” value (400 mg QPM, Week 11) was 17 (45.9) n (%) and the “OR for rilzabrutinib vs. placebo (ISS7 reduction of 5 points or more)” value (400 mg QPM, Week 11) was 0.932. The “RRD (%) for rilzabrutinib vs. placebo (ISS7 reduction of 5 points or more)” value (from here on “RRD (%) … (ISS7 reduction of 5 points or more)”) (400 mg QPM, Week 11) was −1.7%, the “Responder n (%) (ISS7 reduction of 5 points or more)” value (400 mg QPM, Week 11) was 20 (54.1) n (%) and the “Imputed non-responder n (%) (ISS7 reduction of 5 points or more)” value (400 mg QPM, Week 12) was 10 (27.0) n (%). For the same compound, the “Non-responder n (%) (ISS7 reduction of 5 points or more)” value (400 mg QPM, Week 12) was 21 (56.8) n (%), the “OR for rilzabrutinib vs. placebo (ISS7 reduction of 5 points or more)” value (400 mg QPM, Week 12) was 0.851 and the “RRD (%) … (ISS7 reduction of 5 points or more)” value (400 mg QPM, Week 12) was −4.2%. For the same compound, the “Responder n (%) (ISS7 reduction of 5 points or more)” value (400 mg QPM, Week 12) was 16 (43.2) n (%), the “Imputed non-responder n (%) (ISS7 reduction of 5 points or more)” value (400 mg TID, Week 1) was 0 n (%) and the “Non-responder n (%) (ISS7 reduction of 5 points or more)” value (400 mg TID, Week 1) was 13 (37.1) n (%). The “OR for rilzabrutinib vs. placebo (ISS7 reduction of 5 points or more)” value (400 mg TID, Week 1) was 5.851, the “RRD (%) … (ISS7 reduction of 5 points or more)” value (400 mg TID, Week 1) was 40.1% and the “Responder n (%) (ISS7 reduction of 5 points or more)” value (400 mg TID, Week 1) was 22 (62.9) n (%). For the same compound, the “Imputed non-responder n (%) (ISS7 reduction of 5 points or more)” value (400 mg TID, Week 2) was 0 n (%), the “Non-responder n (%) (ISS7 reduction of 5 points or more)” value (400 mg TID, Week 2) was 12 (34.3) n (%) and the “OR for rilzabrutinib vs. placebo (ISS7 reduction of 5 points or more)” value (400 mg TID, Week 2) was 4.876. For the same compound, the “RRD (%) … (ISS7 reduction of 5 points or more)” value (400 mg TID, Week 2) was 36.4%, the “Responder n (%) (ISS7 reduction of 5 points or more)” value (400 mg TID, Week 2) was 23 (65.7) n (%) and the “Imputed non-responder n (%) (ISS7 reduction of 5 points or more)” value (400 mg TID, Week 3) was 0 n (%). The “Non-responder n (%) (ISS7 reduction of 5 points or more)” value (400 mg TID, Week 3) was 12 (34.3) n (%), the “OR for rilzabrutinib vs. placebo (ISS7 reduction of 5 points or more)” value (400 mg TID, Week 3) was 3.637 and the “RRD (%) … (ISS7 reduction of 5 points or more)” value (400 mg TID, Week 3) was 34.3%. The “Responder n (%) (ISS7 reduction of 5 points or more)” value (400 mg TID, Week 3) was 23 (65.7) n (%), the “Imputed non-responder n (%) (ISS7 reduction of 5 points or more)” value (400 mg TID, Week 4) was 3 (8.6) n (%) and the “Non-responder n (%) (ISS7 reduction of 5 points or more)” value (400 mg TID, Week 4) was 11 (31.4) n (%). The “OR for rilzabrutinib vs. placebo (ISS7 reduction of 5 points or more)” value (400 mg TID, Week 4) was 2.777, the “RRD (%) … (ISS7 reduction of 5 points or more)” value (400 mg TID, Week 4) was 25.1% and the “Responder n (%) (ISS7 reduction of 5 points or more)” value (400 mg TID, Week 4) was 24 (68.6) n (%). For the same compound, the “Imputed non-responder n (%) (ISS7 reduction of 5 points or more)” value (400 mg TID, Week 5) was 2 (5.7) n (%), the “Non-responder n (%) (ISS7 reduction of 5 points or more)” value (400 mg TID, Week 5) was 10 (28.6) n (%) and the “OR for rilzabrutinib vs. placebo (ISS7 reduction of 5 points or more)” value (400 mg TID, Week 5) was 2.535. The “RRD (%) … (ISS7 reduction of 5 points or more)” value (400 mg TID, Week 5) was 22.7%, the “Responder n (%) (ISS7 reduction of 5 points or more)” value (400 mg TID, Week 5) was 25 (71.4) n (%) and the “Imputed non-responder n (%) (ISS7 reduction of 5 points or more)” value (400 mg TID, Week 6) was 4 (11.4) n (%). The “Non-responder n (%) (ISS7 reduction of 5 points or more)” value (400 mg TID, Week 6) was 15 (42.9) n (%), the “OR for rilzabrutinib vs. placebo (ISS7 reduction of 5 points or more)” value (400 mg TID, Week 6) was 1.563 and the “Responder n (%) (ISS7 reduction of 5 points or more)” value (400 mg TID, Week 6) was 20 (57.1) n (%). The “Imputed non-responder n (%) (ISS7 reduction of 5 points or more)” value (400 mg TID, Week 7) was 5 (14.3) n (%), the “Non-responder n (%) (ISS7 reduction of 5 points or more)” value (400 mg TID, Week 7) was 11 (31.4) n (%) and the “OR for rilzabrutinib vs. placebo (ISS7 reduction of 5 points or more)” value (400 mg TID, Week 7) was 2.715. The “RRD (%) … (ISS7 reduction of 5 points or more)” value (400 mg TID, Week 7) was 23.5%, the “Responder n (%) (ISS7 reduction of 5 points or more)” value (400 mg TID, Week 7) was 24 (68.6) n (%) and the “Imputed non-responder n (%) (ISS7 reduction of 5 points or more)” value (400 mg TID, Week 8) was 7 (20.0) n (%). The “Non-responder n (%) (ISS7 reduction of 5 points or more)” value (400 mg TID, Week 8) was 12 (34.3) n (%), the “OR for rilzabrutinib vs. placebo (ISS7 reduction of 5 points or more)” value (400 mg TID, Week 8) was 1.891 and the “RRD (%) … (ISS7 reduction of 5 points or more)” value (400 mg TID, Week 8) was 16.1%. For the same compound, the “Responder n (%) (ISS7 reduction of 5 points or more)” value (400 mg TID, Week 8) was 23 (65.7) n (%), the “Imputed non-responder n (%) (ISS7 reduction of 5 points or more)” value (400 mg TID, Week 9) was 6 (17.1) n (%) and the “Non-responder n (%) (ISS7 reduction of 5 points or more)” value (400 mg TID, Week 9) was 11 (31.4) n (%). The “OR for rilzabrutinib vs. placebo (ISS7 reduction of 5 points or more)” value (400 mg TID, Week 9) was 2.956, the “RRD (%) … (ISS7 reduction of 5 points or more)” value (400 mg TID, Week 9) was 25.1% and the “Responder n (%) (ISS7 reduction of 5 points or more)” value (400 mg TID, Week 9) was 24 (68.6) n (%). For the same compound, the “Imputed non-responder n (%) (ISS7 reduction of 5 points or more)” value (400 mg TID, Week 10) was 5 (14.3) n (%), the “Non-responder n (%) (ISS7 reduction of 5 points or more)” value (400 mg TID, Week 10) was 12 (34.3) n (%) and the “OR for rilzabrutinib vs. placebo (ISS7 reduction of 5 points or more)” value (400 mg TID, Week 10) was 1.910. The “RRD (%) … (ISS7 reduction of 5 points or more)” value (400 mg TID, Week 10) was 15.5%, the “Responder n (%) (ISS7 reduction of 5 points or more)” value (400 mg TID, Week 10) was 23 (65.7) n (%) and the “Imputed non-responder n (%) (ISS7 reduction of 5 points or more)” value (400 mg TID, Week 11) was 4 (11.4) n (%). The “Non-responder n (%) (ISS7 reduction of 5 points or more)” value (400 mg TID, Week 11) was 10 (28.6) n (%), the “OR for rilzabrutinib vs. placebo (ISS7 reduction of 5 points or more)” value (400 mg TID, Week 11) was 1.951 and the “RRD (%) … (ISS7 reduction of 5 points or more)” value (400 mg TID, Week 11) was 15.5%. For the same compound, the “Responder n (%) (ISS7 reduction of 5 points or more)” value (400 mg TID, Week 11) was 25 (71.4) n (%), the “Imputed non-responder n (%) (ISS7 reduction of 5 points or more)” value (400 mg TID, Week 12) was 8 (22.9) n (%) and the “Non-responder n (%) (ISS7 reduction of 5 points or more)” value (400 mg TID, Week 12) was 15 (42.9) n (%). For the same compound, the “OR for rilzabrutinib vs. placebo (ISS7 reduction of 5 points or more)” value (400 mg TID, Week 12) was 1.469, the “Responder n (%) (ISS7 reduction of 5 points or more)” value (400 mg TID, Week 12) was 20 (57.1) n (%) and the “ISS7 Post-baseline Mean (SD)” value (400 mg BID, Week 2) was 10.32 (5.64). The “ISS7 Post-baseline Mean (SD)” value (400 mg BID, Week 3) was 9.16 (6.09), the “ISS7 Post-baseline Mean (SD)” value (400 mg BID, Week 4) was 8.32 (6.02) and the “ISS7 Post-baseline Mean (SD)” value (400 mg BID, Week 5) was 8.88 (6.81). The “ISS7 Post-baseline Mean (SD)” value (400 mg BID, Week 6) was 8.85 (6.40), the “ISS7 Post-baseline Mean (SD)” value (400 mg BID, Week 7) was 8.21 (6.16) and the “ISS7 Post-baseline Mean (SD)” value (400 mg BID, Week 8) was 7.33 (6.55). For the same compound, the “ISS7 Post-baseline Mean (SD)” value (400 mg BID, Week 9) was 7.63 (7.11), the “ISS7 Post-baseline Mean (SD)” value (400 mg BID, Week 10) was 8.17 (7.29) and the “ISS7 Post-baseline Mean (SD)” value (400 mg BID, Week 11) was 7.93 (6.94). The “ISS7 Post-baseline Mean (SD)” value (400 mg BID, Week 12) was 8.09 (6.95), the “ISS7 Post-baseline Mean (SD)” value (400 mg QPM, Week 1) was 13.08 (4.52) and the “ISS7 Post-baseline Mean (SD)” value (400 mg QPM, Week 3) was 11.60 (4.68). The “ISS7 Post-baseline Mean (SD)” value (400 mg QPM, Week 4) was 11.39 (4.79), the “ISS7 Post-baseline Mean (SD)” value (400 mg QPM, Week 5) was 11.00 (4.68) and the “ISS7 Post-baseline Mean (SD)” value (400 mg QPM, Week 6) was 10.27 (5.26). For the same compound, the “ISS7 Post-baseline Mean (SD)” value (400 mg QPM, Week 7) was 10.68 (5.34), the “ISS7 Post-baseline Mean (SD)” value (400 mg QPM, Week 8) was 10.72 (5.26) and the “ISS7 Post-baseline Mean (SD)” value (400 mg QPM, Week 10) was 10.43 (5.30). The “ISS7 Post-baseline Mean (SD)” value (400 mg QPM, Week 11) was 11.03 (5.55).
